US10174120B2, “Methods and compositions for treating solid tumors and enhancing tumor vaccines” (THE TRUSTEES OF THE UNIVERSITY OF PENNSYLVANIA, priority 2007, dated 2019)
Entries after “also recorded” stand apart in the source; their conditions may differ.

How the values were obtained:
[1] = tested on: HUVEC; assay: Reactive oxidative species (ROS) quantified in HUVEC; format: cell-based, human; settings: for ROS in HUVEC: exposure to rhET-1, with or without BQ788
Experimental: (§1) To further test the role of ETRB signaling in adhesion, the effects of NO antagonist L-NAME and NO donor DETANO were tested under the above experimental conditions. […] Thus, ET-1, through ETRB, downregulates the ability of endothelium to respond to inflammatory signals present in the tumor microenvironment such as TNF-α, which is restored by blocking ETRB through BQ788. Further, an NO antagonist abrogated the effects of ET-1, while NO donor reproduced its effect, showing that NO plays a role in the inhibitory effect of ET-1. To further test whether ETRB signaling upregulates NO in endothelial cells, reactive oxidative species (ROS) were quantified in HUVEC.

[2] = tested on: HUVEC; assay: Adhesion of activated T cells to pretreated HUVEC; format: cell-based, human; settings: for T cell adhesion to HUVEC in the presence of TNF- and ET-1: NO antagonist / NO donor under the same experimental conditions; for adherence of activated human T cells to HUVEC: T cells activated with PMA or CD3/CD28, Endothelin plus BQ-788 compared to Endothelin alone, Endothelin and ETRA antagonist, or untreated
Experimental: (§2) Human vascular endothelial cells (HUVEC) were grown to 70% confluence in EBM media then treated with 50 nM Endothelin receptor B inhibitor BQ-788 (American peptide), or 2.5 nm Endothelin alone or in the presence of either 50 nm Endothelin receptor A inhibitor BQ123 (American peptide), or 50 nM Endothelin receptor B inhibitor BQ-788. Alternatively cells were treated with BQ-788 alone. Media was changed every 48 hrs for a total of 6 days. After 6 days cells were harvested for RNA, flow cytometry or incubated activated T cells. T cells were activated for 48 hours with either 5 ng/ml PMA […] or CD3 and CD28 beads. After activation T cells were labeled with CFSE and then incubated with pretreated endothelial cells for 2 hours with shaking. Cells were then washed 3× with PBS and adhesions was determined using a fluorescent plate reader.
The ability of activated T cells to adhere to BQ-788-treated HUVEC was also tested. […] T cell adherence to BQ788/Endothelin-treated HUVEC was 40% as effective as TNF-alpha activation of HUVEC. Thus, under the conditions utilized, BQ788 induces expression of ICAM-1 on endothelial cells and leads to increased T cell adhesion to tumor endothelium, playing a role in its increase of intratumoral T cells and enhancement of vaccine efficacy.
as §1

[3] = tested on: CD3+/CD8+ splenocytes; assay: T cell proliferation assay, CFSE-labeled splenocytes with DC pulsed with UV-radiated ID8; format: cell-based, mice; settings: BQ-788 versus control peptide, 6 days with ID8-pulsed DC
Excerpt: (§3) To confirm that ETRB plays a role in inhibiting T cell homing to human ovarian cancers, the ID8 syngeneic mouse model of ovarian cancer was utilized. This model responds modestly to potent dendritic cell (DC) vaccination. Strong expression of ETRB was detected in tumor endothelium in ID8 flank tumors by IHC (FIG. 7). Mice were vaccinated with a suboptimal preventive vaccine, containing UV-treated ID8 cells, which results in induction of systemic tumor-reactive interferon-gamma secreting T cells without significant delay in tumor growth Following vaccination, mice were inoculated with flank tumors, which were allowed to engraft for 2 or 5 weeks, and then mice were treated i.p. with the ETRB antagonist peptide, BQ-788, […] (SEQ ID No: 90), every 2nd day for 2 weeks or with control peptide that was a scrambled version of the above peptide. Additional controls included non-vaccinated animals treated with BQ-788 or control peptide. To confirm that the above vaccination scheme results in significant increase in the frequency of systemic tumor-reactive T cells, CD3^+/CD8^+ splenocytes from vaccinated animals treated with BQ-788 or control peptide, and from non-vaccinated mice, were labeled with CFSE and incubated with DC pulsed with UV-radiated ID8 for 6 days to assess proliferation. […] Proliferation of lymphocytes from vaccinated mice treated with BQ-788 or control peptide was similar.

[4] = tested on: HUVEC; assay: HUVEC treated with Endothelin and BQ-788: morphology and qRT-PCR; format: cell-based, human; settings: for morphology of HUVEC: BQ-788 in the presence of Endothelin, 6 days
Experimental: qRT-PCR was performed using primers to the 3′ end of transcripts spanning intron-exon boundaries whenever possible for 35 cycles using Sybergreen® (ABI, Foster City, Calif.), with primers at 150 nM concentrations. Primers were 18-24 nucleotides and were designed to have a TM of 59-61° C. All transcripts were confirmed using 3% agarose gel electrophoresis. Gene expression was normalized against β-actin in all studies unless stated otherwise.
as §2
Next, the effect of BQ-788 on human and murine endothelial cells or T cells was tested in the presence or absence of ET-1 ligand. In addition, the effect of endothelin receptor A antagonist BQ123 was tested. […] Moreover, there was a decrease in the expression of VE-Cadherin mRNA in BQ788-treated cells (FIG. 9).

[5] = tested on: ID8 flank tumors; assay: T cell infiltration into ID8 flank tumors (IHC, flow cytometry); format: in vivo, mice
Experimental: (§4) Two injections of 5×10 6th UV irradiated ID8 ovarian cancer cells were injected sub-cutaneously in C57Bl6 mice one week apart. Vaccinated mice and non-vaccinated controls were injected with 5×10^6 ID8 cells in the flank with […] matrigel or intraperitoneally. Tumors were allowed to grow for 2 or 5 weeks as indicated, and then treated with intraperitoneal injections of BQ-788 (300 mcg) or control peptide for 2 weeks.
FACS analysis was performed using APC-CD45 (BD Pharmingen), PE-anti CD3, FITC anti CD4, and Biotin anti-CD8 coupled with streptavid PE-Cy7.
as §3
Tumor growth delay was not observed in non-vaccinated mice treated with BQ-788 or in vaccinated mice treated with control peptide. […] Flow cytometry from mechanically dissected tumors confirmed the results observed with IHC: In non-vaccinated animals treated with BQ-788 as well as in vaccinated animals treated with control peptide, CD3^+ cells represented on average 4% of the cells (range 0.5 to 12%), while vaccinated animals treated with BQ-788, CD3^+ cells represented 15% of the cells (range 8 to 30%), containing both CD4^+ and CD8^+ cells (FIG. 8).

[6] = tested on: ID8 cells; assay: CTL assay, lysis of ID8 cells by CD3+/CD8+ splenocytes; format: cell-based, mice; settings: splenocytes from vaccinated animals treated with BQ-788
[7] = tested on: ID8 flank tumors; assay: ID8 flank tumor model, BQ788 as tumor vaccine adjuvant (tumor growth); format: in vivo, mice
Experimental: as §4
The murine epithelial ovarian cancer cell line ID8, syngeneic to C57BL/6 mice was cultured in DMEM supplemented with 4% FBS, 13 ITS media supplement (bovine insulin (5 mg/L), human transferrin (5 mg/L), and sodium selenite ([…]); Sigma), and antibiotics.
(§5) Female C57BL/6 mice (8 weeks of age) were injected 3 times […]. with 1×10^6 UV-treated, apoptotic ID8 ovarian cancer cells (resuspended in 500 microliter (mcL) DMEM without supplements) in the flank. For the orthotopic, intraperitoneal model, mice were injected i.p. with 5×10^6ID8 cells.
To confirm that ETRB plays a role in inhibiting T cell homing to human ovarian cancers, the ID8 syngeneic mouse model of ovarian cancer was utilized. This model responds modestly to potent dendritic cell (DC) vaccination. Strong expression of ETRB was detected in tumor endothelium in ID8 flank tumors by IHC (FIG. 7). […]

[8] = tested on: intraperitoneal ID8 cells; assay: Orthotopic, intraperitoneal ID8 model of ovarian cancer (ascites, survival); format: in vivo, mice; settings: vaccinated animals, BQ-788 every 2nd day for 2 weeks from two weeks after i.p. ID8, versus control peptide
Experimental: as §4, §5
The impact of BQ-788 on survival in vaccinated animals was also tested in the orthotopic, intraperitoneal ID8 model of ovarian cancer. Following vaccination, mice were injected i.p. with ID8 cells. Two weeks later, animals received either BQ-788 or control peptide every 2nd day for 2 weeks.

SMILES: CC[C@H](C)[C@H](NC(=O)[C@H](CC(=O)O)NC(=O)[C@H](CC(C)C)NC(=O)[C@H](Cc1c[nH]cn1)NC(=O)[C@@H]1CSSC[C@H](N)C(=O)N[C@@H](CO)C(=O)N[C@H]2CSSC[C@H](NC(=O)[C@H](CCC(=O)O)NC(=O)[C@H](CCCCN)NC(=O)[C@H](CC(=O)O)NC(=O)[C@H](CCSC)NC(=O)[C@H](CC(C)C)NC(=O)[C@H](CO)NC(=O)[C@H](CO)NC2=O)C(=O)N[C@@H](C(C)C)C(=O)N[C@@H](Cc2ccc(O)cc2)C(=O)N[C@@H](Cc2ccccc2)C(=O)N1)C(=O)N[C@H](C(=O)N[C@@H](Cc1c[nH]c2ccccc12)C(=O)O)[C@@H](C)CC [rhET-1]
- ROS in HUVEC [1]: upregulated ROS

SMILES: COC(=O)[C@@H](N)CCCNC(=N)N[N+](=O)[O-] [L-NAME]
- T cell adhesion to HUVEC in the presence of TNF- and ET-1 [2]: restored T cell adhesion

SMILES: NCCN(CCN)/[N+]([O-])=N/O [DETANO]
- T cell adhesion to HUVEC in the presence of TNF- and ET-1 [2]: mimicked the effects of ET-1

SMILES: CCCC[C@@H](NC(=O)[C@@H](Cc1cn(C(=O)OC)c2ccccc12)NC(=O)[C@H](CC(C)(C)C)NC(=O)N1[C@H](C)CCC[C@@H]1C)C(=O)O [BQ-788]
- proliferation of lymphocytes from vaccinated mice [3]: similar
- suppression of ROS compared with bacterial LPS ([1]; HUVEC exposed to ET-1): as potent as bacterial LPS
- ROS in HUVEC [1]: abrogated such response to ET-1
- mRNA levels for ICAM-2, ICAM-3, E-selectin, JAM, CXCL-11, CCL-19, or CCL-21 ([4]; BQ788-treated HUVEC): No specific changes were detected
- expression of VE-Cadherin mRNA ([4]; BQ788-treated HUVEC in the presence of Endothelin): decrease; also recorded: decreased expression of VE-Cadherin
- morphology of HUVEC [4]: distinct morphological change
- morphology of HUVEC ([4]; listed as BQ788): Morphologic changes
- increased expression of ICAM-1 mRNA, qRT-PCR ([4]; Endothelin and BQ-788 compared to untreated HUVEC, Endothelin alone, or Endothelin plus ETRA antagonist): over 7 fold
- expression of ICAM1, qRT-PCR (in words) ([4]; Endothelin+BQ788-treated HUVEC as compared to Endothelin alone or BQ788 alone): increased expression of ICAM1
- numbers of CD3+, CD8+ T cells in tumors, FACS analysis ([5]; BQ788 treated animals as compared to control animals): increased numbers of CD3^+, CD8^+ T cells
- intratumoral CD8+ T cells (IHC) ([5]; non-vaccinated animals treated with BQ-788): scarce intratumoral CD8^+ T cells
- CD3+ cells as share of the cells of dissected tumors, flow cytometry, average ([5]; non-vaccinated animals treated with BQ-788, stated together with vaccinated animals treated with control peptide): 4%
- CD3+ cells as share of the cells of dissected tumors, flow cytometry ([5]; vaccinated animals treated with BQ-788): 15%
- intratumoral CD8+ T cells (IHC) ([5]; vaccinated mice treated with BQ-788): very strong infiltration by CD8^+ T cells
- intratumoral CD8+ T cells (IHC) ([5]; vaccinated mice treated with BQ-788, listed as BQ788): significant numbers of CD8^+ T cells
- ID8 cell killing by CD3+/CD8+ splenocytes [6]: robust ID8 cell killing
- tumor growth delay ([7]; non-vaccinated mice treated with BQ-788): not observed
- tumor growth ([7]; vaccinated mice, i.p. BQ-788 every 2nd day for 2 weeks, starting at 2 or at 5 weeks after engraftment): significant reduction in tumor growth
- ascites development [8]: developed ascites later
- survival [8]: significant prolongation of survival
- T cell adherence relative to TNF-alpha activation of HUVEC ([2]; BQ788/Endothelin-treated HUVEC): 40%
- adherence of activated human T cells to HUVEC [2]: increased adherence
- adherence of activated human T cells to HUVEC ([2]; listed as BQ788): increased ability of T cells to adhere
